Measurements: US7030273B1, “Compounds with physiological cooling effect” (Qaroma, Inc, priority 2005, dated 2006)

Columns and labels:
[1] = test system: cold receptors of the skin and mucous membranes of the human body; assay: Panel test of physiological cooling ability against WS-23, solutions applied orally; assay type: in vivo; design: key: + means the compound has equal or stronger cooling effect than WS-23; conditions: 2000 ppm solution applied orally; panel of 5 people
Procedure: The following testing procedure is aimed at determining physiological cooling ability of testing compounds with regard to WS-23 ([…]). The tests are carried out on a selected panel of 5 people. The present test procedure is done on a statistical basis because sensitivity to cooling compounds will vary not only from compound to compound and from one part of the body to another, but from one individual to another as well. Tests of this nature are commonly used on the testing and quality control of the organoleptic properties, e.g. taste, smell of organic and inorganic food products.
1 g of each testing compound is dissolved in 99 g denatured ethanol to form 1% solution. 2 g such solution is then diluted with 8 g deionized water to form 2000 ppm solution. The solutions are then applied orally to determine the cooling effect.
To test the cooling activity of the compounds in this invention, the compounds prepared in this invention are tested repeatedly by the 5 selected panelists and the results are compared with WS-23.

[2] = test system: tongue; assay: Toothpicks soaked in compound solution, put on tongue; assay type: in vivo, human; conditions: toothpick tips soaked in 5% solution in denatured ethanol, dried
Description: Toothpick tips were soaked in 5% solution of Compound 3 in this invention in denatured ethanol for long enough to have enough deposition of the compound. The picks were then dried.

[3] = test system: mouth; assay: Mint candies containing the compound, cooling effect in the mouth; assay type: in vivo, human; conditions: 0.02% in icing sugar candies
Procedure: Icing sugar was mixed with small amount of water at 50° C. to form a paste. 0.02% Compound 5 in this invention was added and stirred. Cooled to room temperature, the mixture hardened and was broken into smaller pieces.

SMILES | Cooling ability compared to WS-23 [1] | cooling sensation on tongue [2] | cooling effect in the mouth [3] | melting point
CCOCCNC(=O)C(C)(C(C)C)C(C)C [Compound 3, N-(2-ethoxyethyl)-2,3-dimethyl-2-isopropylbutyramide] | + | pronounced cooling sensation |  | 
COCCCNC(=O)C(C)(C(C)C)C(C)C [Compound 5, N-(3-methoxypropyl)-2,3-dimethyl-2-isopropylbutyramide] | + |  | marked cooling effect in the mouth | 10 °C
CCOCCCNC(=O)C(C)(C(C)C)C(C)C [Compound 6, N-(3-ethoxypropyl)-2,3-dimethyl-2-isopropylbutyramide] | + |  |  | 30 °C
CC(C)OCCCNC(=O)C(C)(C(C)C)C(C)C [Compound 7, N-(3-isopropoxypropyl)-2,3-dimethyl-2-isopropylbutyramide] | + |  |  | 32 °C
CCCCOCCCNC(=O)C(C)(C(C)C)C(C)C [Compound 8, N-(3-butoxypropyl)-2,3-dimethyl-2-isopropylbutyramide] | + |  |  | 40 °C
